From patent US11866430B2, “Naphthyridinone compounds useful as T cell activators” (priority 2018, dated 2024)
pEC50, pIC50: −log10 of the molar value. Read-outs that look alike come from different tables or passages of the source.

Assays:
human DGKα = human DGKα (Homo sapiens (Human), UniProt P23743); experiment: biochemical; details: detergent/lipid micelle substrate; read-out: DGKα IC50
How it was run: (§1)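 Full-length human DGKζ (and DGKα), C-terminal His-tagged, Sf9-expressed, with phosphatidylserine/DAG micelles in 50 mM octyl glucoside; buffer 50 mM MOPS pH 7.5, 100 mM NaCl, 10 mM MgCl2, 1 μM CaCl2, 1 mM DTT.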

human DGKζ = human DGKζ (Homo sapiens (Human), UniProt Q13574); experiment: DGKζ assay (detergent/lipid micelle substrate); assay type: biochemical
Chain of human DGKζ (Q13574 other isoform, or with tags, fused parts or gaps): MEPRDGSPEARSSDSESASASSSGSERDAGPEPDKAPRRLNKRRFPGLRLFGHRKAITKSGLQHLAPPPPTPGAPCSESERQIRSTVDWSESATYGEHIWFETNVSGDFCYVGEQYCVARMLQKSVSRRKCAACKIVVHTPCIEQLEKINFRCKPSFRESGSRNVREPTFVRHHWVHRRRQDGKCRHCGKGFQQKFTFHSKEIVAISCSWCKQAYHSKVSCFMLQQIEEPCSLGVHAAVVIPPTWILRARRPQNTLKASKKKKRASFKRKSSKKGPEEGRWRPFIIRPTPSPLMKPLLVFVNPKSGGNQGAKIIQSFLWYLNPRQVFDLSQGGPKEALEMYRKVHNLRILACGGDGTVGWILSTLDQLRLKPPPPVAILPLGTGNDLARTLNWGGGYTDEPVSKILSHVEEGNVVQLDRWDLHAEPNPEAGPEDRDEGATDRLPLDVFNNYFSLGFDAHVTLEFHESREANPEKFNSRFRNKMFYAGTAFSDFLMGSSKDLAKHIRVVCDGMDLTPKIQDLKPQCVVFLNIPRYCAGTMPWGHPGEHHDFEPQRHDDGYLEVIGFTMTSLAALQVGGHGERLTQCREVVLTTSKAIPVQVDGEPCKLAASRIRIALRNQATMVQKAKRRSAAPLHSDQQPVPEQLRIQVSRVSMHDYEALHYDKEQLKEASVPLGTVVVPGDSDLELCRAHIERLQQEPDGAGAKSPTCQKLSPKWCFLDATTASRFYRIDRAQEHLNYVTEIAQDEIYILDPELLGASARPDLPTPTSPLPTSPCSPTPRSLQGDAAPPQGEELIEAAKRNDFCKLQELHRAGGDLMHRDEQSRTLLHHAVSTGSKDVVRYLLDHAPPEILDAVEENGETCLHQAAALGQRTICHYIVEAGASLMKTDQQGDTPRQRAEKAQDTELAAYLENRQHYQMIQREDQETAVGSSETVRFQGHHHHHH
How it was run: as §1

naïve human CD8 T cells = experiment: CellTiter-Glo CD8 T Cell Proliferation Assay; assay type: cell-based; details: Homo sapiens, T-cell, CellTiter-Glo CD8 T cell proliferation, normalized; read-out: CD8 GLO normalized EC50
Protocol: Frozen naïve human CD8 T cells were thawed in RPMI+10% FBS, incubated for 2 h in 37° C., and counted. The 384-well tissue culture plate was coated overnight at 4° C. with 20 μl anti-human CD3 at 0.1 μg/mL in plain RPMI, which was removed off the plate before 20 k/40 μl CD8 T cells with 0.5 μg/mL soluble anti-human CD28 were added to each well. The compounds were echoed to the cell plate immediately after the cells were plated. After 72 h incubation at 37° C. incubator, 10 μl CellTiter-glo reagent (Promega catalog number G7570) was added to each well. The plate was vigorously shaken for 5 mins, incubated at room temperature for another 15 mins and read on Envision for CD8 T cell proliferation. In analysis, 0.1 μg/mL anti-CD3 and 0.5 μg/mL anti-CD28 stimulated CD8 T cell signal was background.

[1] = tested on: Jurkat AP1-luciferase Reporter; experiment: DGK AP1-Reporter Assay; assay type: cell-based; details: Homo sapiens, Jurkat
How it was run: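 Jurkat cells carrying a lentiviral AP1-luciferase reporter received 30 nl compound per well for 20 min at 37 °C and 5% CO2. They were then stimulated for 6 h with anti-CD3 solution at 0.4 μg/mL; reference wells received 4 μg/mL and unstimulated wells medium only. Readout was Steady-Glo luciferase luminescence (RLU).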

[2] = tested on: OT-1 antigen-specific CD8+ T cells with MC38 tumor cells; experiment: Murine Cytotoxic T Lymphocyte Assay (IFN-γ); assay type: cell-based, mouse; details: Mus musculus, MC-38, read-out: msCTL INF-γ IC50, murine CTL IFN-γ (table title reads INF-γ Whole Blood Normalized Agonist EC50)
From the text: An antigen-specific cytolytic T-cell (CTL) assay was developed to evaluate functionally the ability of DGKα and DGKζ inhibitors to enhance effector T cell mediated tumor cell killing activity. CD8+ T-cells isolated from the OT-1 transgenic mouse recognize antigen presenting cells, MC38, that present the ovalbumin derived peptide […]. Recognition of the cognate antigen initiates the cytolytic activity of the OT-1 antigen-specific CD8+ T cells.
Functional CTL cells were generated as follows: OT-1 splenocytes from 8-12 week old mice were isolated and expanded in the presence of the […] peptide at 1 μg/mL and mIL2 at 10 U/mL. After three days, fresh media with mIL2 U/mL was added. On day 5 of the expansion, the CD8+ T cells were isolated and ready for use. Activated CTL cells may be stored frozen for 6 months. […] The cells were washed (3×) with fresh media to remove excess peptide. Finally, CTL cells that were pretreated with DGK inhibitors for 1 hour in a 96-well U bottom plate were combined with the antigen loaded MC38 tumor cells at a 1:10 ratio. The cells were then spun at 700 rpm for 5 min and placed in an incubator overnight at 37° C. After 24 hours, the supernatant was collected for analysis of IFN-γ cytokine levels by AlphaLisa purchased from Perkin Elmer.

Human venous whole blood = experiment: Human Whole Blood IFN-γ Assay; assay type: cell-based; details: Homo sapiens
Protocol: Human venous whole blood (22.5 μL per well), obtained from healthy donors, was pre-treated with compounds for one hour at 37° C. in a humidified 95% air/5% CO2 incubator. The blood was stimulated with 2.5 μL anti-human CD3 and anti-CD28 mAb at a final concentration of 1 μg/mL each for 24 hours at 37° C. IFN-γ in the supernatants was measured using AlphaLISA kit (Cat #AL217).

[3] = tested on: pre-activated CD4 T cells and Raji cells; experiment: Raji CD4 T Cell IL2 Assay; assay type: cell-based; details: Homo sapiens, Raji
[4] = read-out: API-Luciferase Reporter IC50, Table 3
[5] = read-out: DGKAP1 Lucif Reporter IC50, Table 4
[6] = detergent/lipid micelle substrate, read-out: DGKζ IC50

Chain of human DGKα (P23743 other isoform, or with tags, fused parts or gaps): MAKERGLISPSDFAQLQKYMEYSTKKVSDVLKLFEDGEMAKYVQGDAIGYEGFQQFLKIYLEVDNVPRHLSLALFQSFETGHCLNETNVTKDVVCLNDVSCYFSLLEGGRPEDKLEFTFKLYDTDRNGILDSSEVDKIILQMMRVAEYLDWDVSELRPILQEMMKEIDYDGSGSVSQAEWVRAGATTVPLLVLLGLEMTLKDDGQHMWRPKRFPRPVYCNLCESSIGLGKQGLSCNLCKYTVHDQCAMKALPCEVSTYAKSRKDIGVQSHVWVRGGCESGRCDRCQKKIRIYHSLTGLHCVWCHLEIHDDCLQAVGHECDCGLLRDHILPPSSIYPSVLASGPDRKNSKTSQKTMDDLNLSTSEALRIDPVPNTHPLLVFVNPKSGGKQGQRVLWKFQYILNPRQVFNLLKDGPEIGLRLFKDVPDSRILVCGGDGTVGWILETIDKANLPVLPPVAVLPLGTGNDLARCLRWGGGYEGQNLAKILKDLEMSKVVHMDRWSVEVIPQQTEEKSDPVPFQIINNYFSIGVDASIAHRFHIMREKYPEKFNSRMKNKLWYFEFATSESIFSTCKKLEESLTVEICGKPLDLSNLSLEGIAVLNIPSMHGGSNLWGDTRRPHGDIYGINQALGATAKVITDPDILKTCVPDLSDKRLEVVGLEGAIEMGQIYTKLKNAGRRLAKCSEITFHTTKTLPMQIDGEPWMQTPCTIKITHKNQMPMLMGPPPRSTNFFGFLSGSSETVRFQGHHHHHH

SMILES | pIC50 (human DGKα) | pIC50 (human DGKζ; DGKζ IC50, detergent/lipid micelle substrate) | pEC50 (naïve human CD8 T cells) | pIC50 [1, 4] | pIC50 [1, 5] | pIC50 (human DGKζ; [6]) | pIC50 [2] | pEC50 (Human venous whole blood; human whole blood, anti-CD3 plus anti-CD28 as baseline, 3 μM Example 40 co-stimulation as 100% activation, read-out: INF-γ Whole Blood Normalized Agonist EC50) | pEC50 (Human venous whole blood; read-out: INF-γ Whole Blood Agonist EC50) | pIC50 [3]
CC(c1ccc(F)cc1)N1CCN(c2c(C#N)c(=O)n(CC3CC3)c3ccc(Br)nc23)CC1 (racemic) [Example 162, 6-bromo-1-(cyclopropylmethyl)-4-(4-(1-(4-fluorophenyl)ethyl)piperazin-1-yl)-2-oxo-1,2-dihydro-1,5-naphthyridine-3-carbonitrile] | 3.80 | < 3.62 | 5.00 | 5.32 | 5.00 | – | – | – | – | –
COCCn1c(=O)c([N+](=O)[O-])c(N2CCN(C(c3ccc(F)cc3)c3ccccc3O)CC2)c2nc(C#N)ccc21 (centres unmarked) [Example 145, 8-(4-((4-fluorophenyl)(2-hydroxyphenyl)methyl)piperazin-1-yl)-5-(2-methoxyethyl)-7-nitro-6-oxo-5,6-dihydro-1,5-naphthyridine-2-carbonitrile] | 4.52 | – | – | 6.24 | – | 5.64 | 6.34 | 5.73 | 5.88 | –
COc1ccc2c(c1)C(N1CCN(c3c(C#N)c(=O)n(CC#N)c4ccc(Br)nc34)CC1)CC2 (centres unmarked) [Example 156, 6-bromo-1-(cyanomethyl)-4-(4-(6-methoxy-2,3-dihydro-1H-inden-1-yl)piperazin-1-yl)-2-oxo-1,2-dihydro-1,5-naphthyridine-3-carbonitrile] | 3.77 | – | 6.85 | 5.00 | 5.00 | 3.85 | – | – | – | < 4.00
